Common to all, as to format: cell-based
The subject of test [1] is HIV-1 (NL4-3/Balenv). Put plainly: HIV-1 infection assay on iMDDCs (p24 in supernatant). Particulars: IM-MDDCs, NL4-3balenv 2 h, culture up to 9 days. Here is the method:
(§1) FIG. 7 is bar graphs showing that selected site A and site B inhibitors decrease HIV-1 binding and infection of IM-MDDCs. Upper panel: IM-MDDCs were treated with two chemical inhibitors directed against site A (A1 and A4) and two inhibitors directed against site B (B1 and B2) (or DMSO) for 10 min at 37° C. Next, cells were pulsed with NL4-3balenv for 60 min at 37° C. and rinsed extensively before measuring p24 content. Lower panel: In some experiments, similarly treated IM-MDDCs were pulsed with NL4-3balenv for 2 h at 37° C., rinsed extensively, and maintained in complete culture medium supplemented with GM-CSF and IL-4 for up to 9 days with medium replenishment every 3 days. Cell-free culture supernatants were quantified by measuring p24 content. Data shown correspond to the means±SEM of 3 independent experiments performed in triplicate. The asterisks denotes statistically significant data (*, P<0.05; **, P<0.01; ***, P<0.001).
(§2) For assessing binding/entry, iMDDCs (3×10^5 cells in a final volume of 300 μl) were pre-treated with 10 μM of different chemical inhibitors for 10 min and exposed to NL4-3/Balenv (30 ng of p24) for 60 min at 37° C. After three washes with PBS, cells were re-suspended in PBS containing 1% BSA. The p24 content was determined by ELISA, while susceptibility of iMDDCs to HIV-1 infection was assessed by initially exposing 3×10^5 cells to NL4-3/Balenv (30 ng) at 37° C. for 2 h. After three washes with PBS, cells were maintained in complete RPMI 1640 supplemented with GM-CSF and IL-4 in 96-well plates, in a final volume of 200 μl. Every 3 days and for a 9-day period, half of the conditioned medium was collected and kept at −20° C. until assayed. Virus production was estimated as above by measuring p24 levels by ELISA.

The subject of test [2] is HIV-1 (NL4-3/Balenv). Nature of the test: HIV-1 binding assay on iMDDCs (p24). Particulars: IM-MDDCs, 10 μM pre-incubation 10 min, NL4-3balenv 60 min. Here is the method: as §1, §2
For test [3], the target named is T1, DC-SIGN (Homo sapiens, UniProt Q9NNX6).
T1 construct: expressed in transfected cells; host or cells: Raji cells stably transfected with a DC-SIGN plasmid
T1 sequence (Q9NNX6 1-404): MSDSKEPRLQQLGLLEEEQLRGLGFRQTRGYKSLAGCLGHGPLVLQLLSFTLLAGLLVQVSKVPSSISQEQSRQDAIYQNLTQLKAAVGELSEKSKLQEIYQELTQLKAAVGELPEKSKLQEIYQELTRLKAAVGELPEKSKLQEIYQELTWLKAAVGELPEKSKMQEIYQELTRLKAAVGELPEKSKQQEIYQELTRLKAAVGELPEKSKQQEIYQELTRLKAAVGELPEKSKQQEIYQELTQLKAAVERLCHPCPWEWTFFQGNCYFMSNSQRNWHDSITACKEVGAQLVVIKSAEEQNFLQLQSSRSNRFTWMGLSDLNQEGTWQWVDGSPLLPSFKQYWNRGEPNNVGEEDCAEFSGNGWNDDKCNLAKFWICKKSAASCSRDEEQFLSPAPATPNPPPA
Nature of the test: HIV-1 binding to Raji-DC-SIGN cells (p24). Particulars: NL4-3 60 min. Here is the method:
Raji-DC-SIGN cells were treated for 10 min at 37° C. with inhibitors A1 and A4 directed against the site A and B1 and B2 directed against the site B, or with DMSO. Afterwards, cells were pulsed with NL4-3 for 60 min, rinsed thrice with PBS were made to remove unadsorbed virus, and cell-associated viruses were quantified by measuring p24 content. Data shown correspond to the means±SEM of 3 independent experiments performed in triplicate.
(§3) Where indicated, 1×10^6 parental Raji-CD4 cells (DCIR-negative), Raji-CD4-DCIR or Raji-DC-SIGN transfectants were pre-treated with the indicated amount of a chemical inhibitor for 10 min. Cells were then pulsed with NL4-3 (an equivalent of 100 ng of p24) for 60 min at 37° C. The virus-cell mixture was then washed three times with PBS to remove unbound virus and re-suspended in PBS containing 1% BSA. Binding/entry was then determined by the p24 content by ELISA as above. For the infection assay, Raji-CD4 and Raji-CD4-DCIR (1×10^6 cells) were exposed to NL4-3 viral stock (100 ng of p24) for 2 h at 37° C. After three washes with PBS to remove excess virus, cells were maintained in culture for up to 9 days. Cell-free culture supernatants were collected at the indicated time points and assayed for p24 content.

In test [4] the test system is HIV-1 (NL4-3). Nature of the test: HIV-1 infection assay on Raji-CD4 and Raji-CD4-DCIR cells (p24 in supernatant). Particulars: Raji-CD4 vs Raji-CD4-DCIR, NL4-3 2 h, culture 3 d. How it is done:
FIG. 5 is a bar graph showing that specific inhibitors against the site A (A1, A4) and site B (B1, B2) decrease infectivity of Raji-CD4-DCIR. Raji-CD4 and Raji-CD4-DCIR were treated with the inhibitors selected following experiments described in FIG. 4, or DMSO. Cells were then exposed to NL4-3 for 2 h, rinsed and maintained in culture for 3d. Cell-free culture supernatants were collected and assayed for p24 content. Data shown correspond to the means±SEM from 3 independent experiments performed with triplicate samples. The asterisk (*) denotes statistically significant data (*, P<0.05, ** P<0.01, *** P<0.001).
as §3

Test [5] has as its target T2, DCIR (Homo sapiens, UniProt Q9UMR7).
T2 construct: expressed in transfected cells; host or cells: Raji-CD4 (human B cell line stably expressing human CD4), retroviral transduction
T2 sequence (Q9UMR7 1-237): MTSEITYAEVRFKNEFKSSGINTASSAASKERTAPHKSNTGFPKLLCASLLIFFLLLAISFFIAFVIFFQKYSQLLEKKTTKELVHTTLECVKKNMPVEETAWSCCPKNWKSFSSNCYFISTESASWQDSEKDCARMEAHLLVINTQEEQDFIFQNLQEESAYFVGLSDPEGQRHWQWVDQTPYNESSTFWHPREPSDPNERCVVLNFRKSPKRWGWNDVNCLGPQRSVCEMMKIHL
Nature of the test: HIV-1 binding/entry assay on Raji-CD4-DCIR cells (cell-associated p24). Particulars: 10 μM pre-treatment 10 min; NL4-3 60 min; p24 content. Here is the method:
FIG. 4 is a bar graph showing that inhibitors decrease HIV-1 binding on DCIR. Raji-CD4-DCIR cells were treated with 10 μM of four site A inhibitors (A1, A2, A3 and A4) and three site B inhibitors (B1, B2 and B3) (or with vehicle (DMSO) only) for 10 min at 37° C. Thereafter, cells were pulsed with NL4-3 for 60 min. After three washes with PBS to remove unadsorbed virus, the abundance of cell-associated viruses was quantified by measuring p24 content. Data shown correspond to the means±SEM of three independent experiments performed with triplicate samples. The asterisk (*) denotes statistically significant data (*, P<0.05, ** P<0.01, *** P<0.001).
as §3

“Also recorded” adds a separate entry of the source.

As to `O=C(c1ccccc1)c1cc2ccccc2o1` [Compound B1, 1-benzofuran-2-yl(phenyl)methanone], the “productive infection of DCs” value in test [1] is on record as “blocked productive infection”. Also, the “HIV-1 binding to DCs” value in test [2] was “decreased significantly”. In addition, in test [3], the “HIV-1 binding to DC-SIGN” value is on record as “do not block HIV-1 attachment to DC-SIGN”. In test [4], the HIV-1 production entry is “decreased HIV-1 production only in DCIR-expressing cells”. Besides, the “HIV-1 attachment to Raji-CD4-DCIR cells” value in test [5] is “statistically significant decrease; also recorded: proved active against HIV-1 binding”.
Consider `O=C(/C=C/C=C/c1ccccc1)c1ccccc1` [Compound A1, 1,5-diphenyl-2,4-pentadien-1-one], for which the “productive infection of DCs” value in test [1] is reported as “blocked productive infection”. Besides, the “HIV-1 binding to DCs” value in test [2] was “decreased significantly”. Besides, in test [3], the “HIV-1 binding to DC-SIGN” value is listed as “do not block HIV-1 attachment to DC-SIGN”. In addition, the HIV-1 production entry in test [4] was “decreased HIV-1 production only in DCIR-expressing cells”. Moreover, the “HIV-1 attachment to Raji-CD4-DCIR cells” value in test [5] is given as “statistically significant decrease; also recorded: proved active against HIV-1 binding”.
As to `Cc1ccc(/N=[N+](\[O-])c2ccc(C)cc2)cc1` [Compound B2, 1-methyl-4-[(4-methylphenyl)-NNO-azoxy]benzene], in test [1], the “productive infection of DCs” value was “blocked productive infection”. Moreover, in test [2], the “HIV-1 binding to DCs” value is on record as “decreased significantly”. Also, the “HIV-1 binding to DC-SIGN” value in test [3] was “do not block HIV-1 attachment to DC-SIGN”. Moreover, in test [4], the HIV-1 production entry is “decreased HIV-1 production only in DCIR-expressing cells”. Further, the “HIV-1 attachment to Raji-CD4-DCIR cells” value in test [5] was “statistically significant decrease”.
